Our source for the carcinogen call values is PubChem BioAssay AID1259411 (Chemical Carcinogenesis Research Information System (CCRIS), 2018).

The structures appear in SMILES notation. Active and inactive are the calls of the source. How the calls were made is not given here.

The series concerns rodent carcinogenicity bioassays, tumor incidence. Put plainly: CCRIS carcinogenicity studies. In outline: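 NCI-built, expert-reviewed records of carcinogenicity and related test outcomes (mutagenicity, tumor promotion/inhibition) compiled from published and report sources, historical span 1985-2011, not updated.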

For the compound `CC1CN(N=O)CC(C)N1C` (stereo unspecified), where the note is “Species: RAT, Strain/Sex: F344/FEMALE, Route: ORAL, Dose: 0, 110 MG/L IN DRINKING WATER 5 D/WK FOR 26 WK, STUDY DURATION: 40-50 WK, Dose: 0, 110 MG/L IN DRINKING WATER 5 D/WK FOR 26 WK, STUDY DURATION: 40-50 WK, Tumor Site: Type of Lesion: THYMUS GLAND: LYMPHOMA OR LEUKEMIA, MULTIPLE SITES: LYMPHOMA OR LEUKEMIA, NASAL CAVITY: CARCINOMA, Tumor Site: Type of Lesion: THYMUS GLAND: LYMPHOMA OR LEUKEMIA, MULTIPLE SITES: LYMPHOMA OR LEUKEMIA, NASAL CAVITY: CARCINOMA”, the carcinogen call is “active; positive”.
Turning to `CC(=O)N(O)c1ccc(-c2ccccc2)cc1`, the carcinogen call (Species: RAT, Strain/Sex: STRAIN-CD/FEMALE, Route: INTRAPERITONEAL, Dose: 0, 100 UMOL/KG BW 2/WK FOR 6 WK (STUDY DURATION: 62 WK)) was “inactive; negative”.
Regarding `C=C1C[C@@]23CC[C@H]4[C@@](C)(CCC[C@@]4(C)C(=O)O[C@@H]4O[C@H](CO)[C@@H](O)[C@H](O)[C@H]4O)[C@@H]2CC[C@]1(O[C@@H]1O[C@H](CO)[C@@H](O)[C@H](O)[C@H]1O[C@@H]1O[C@H](CO)[C@@H](O)[C@H](O)[C@H]1O)C3`, the carcinogen call runs as follows: (Species: RAT, Strain/Sex: F344/FEMALE, Route: ORAL, Dose: 0, 2.5, 5% IN DIET FOR 104 WK (STUDY DURATION: 108 WK), Dose: 0, 2.5, 5% IN DIET FOR 104 WK (STUDY DURATION: 108 WK)) “inactive; negative”; (Species: RAT, Strain/Sex: F344/MALE, Route: ORAL, Dose: 0, 2.5, 5% IN DIET FOR 104 WK (STUDY DURATION: 108 WK), Dose: 0, 2.5, 5% IN DIET FOR 104 WK (STUDY DURATION: 108 WK)) “inactive; negative”; (Species: RAT, Strain/Sex: WISTAR/FEMALE, Route: ORAL, Dose: 0, 0.2, 0.6%, 1.2% IN DIET FOR 24 MO (STUDY DURATION: 24 MO), Dose: 0, 0.2, 0.6%, 1.2% IN DIET FOR 24 MO (STUDY DURATION: 24 MO)) “inactive; negative”; (Species: RAT, Strain/Sex: WISTAR/MALE, Route: ORAL, Dose: 0, 0.2, 0.6, 1.2% IN DIET FOR 24 MO (STUDY DURATION: 24 MO), Dose: 0, 0.2, 0.6, 1.2% IN DIET FOR 24 MO (STUDY DURATION: 24 MO)) “inactive; negative”.
As to `C=CC(=O)OCCCCCC(C)C`, the carcinogen call (Species: MOUSE, Strain/Sex: C3H/MALE, Route: DERMAL, Dose: 25 µL (5% V/V) IN ACETONE APPLIED TO BACK 3 D/WK FOR LIFE (STUDY DURATION: LIFE)) was “inactive; negative”.
For the compound `CN(C)/C=N/c1nnc(/C=C/c2ccc([N+](=O)[O-])o2)o1`, where the note is “Species: RAT, Route: ORAL, Tumor Site: Type of Lesion: MAMMARY GLAND, INTESTINES”, the carcinogen call was “active; positive”.
Regarding `CNC(=O)Oc1cccc(N=CN(C)C)c1`, the carcinogen call reads like this: (Species: Mouse, Strain/Sex: Crl:CD-1(ICR) BR/Female (50/Group), Route: Oral, Dose: 0, 10, 50, 500 ppm of 95.7% formetanate HCl in diet for 104 wk, study duration 104 wk, Dose: 0, 10, 50, 500 ppm of 95.7% formetanate HCl in diet for 104 wk, study duration 104 wk) “inactive; negative”; (Species: Mouse, Strain/Sex: Crl:CD-1(ICR) BR/Male (50/Group), Route: Oral, Dose: 0, 10, 50, 500 ppm of 95.7% formetanate HCl in diet for 104 wk, study duration 104 wk, Dose: 0, 10, 50, 500 ppm of 95.7% formetanate HCl in diet for 104 wk, study duration 104 wk) “inactive; negative”; (Species: Rat, Strain/Sex: Crl:COBS CD(SD)BR/Female (50/Group), Route: Oral, Dose: 0, 10, 50, 250 ppm of 95.1-96% formetanate HCl in diet for 104 wk, study duration 104 wk, Dose: 0, 10, 50, 250 ppm of 95.1-96% formetanate HCl in diet for 104 wk, study duration 104 wk) “inactive; negative”; (Species: Rat, Strain/Sex: Crl:COBS CD(SD)BR/Male (50/Group), Route: Oral, Dose: 0, 10, 50, 250 ppm of 95.1-96% formetanate HCl in diet for 104 wk, study duration 104 wk, Dose: 0, 10, 50, 250 ppm of 95.1-96% formetanate HCl in diet for 104 wk, study duration 104 wk) “inactive; negative”.
On to `Cc1c([N+](=O)[O-])c2ccccc2c2ccc3ccccc3c12`, for which the carcinogen call is, setting by setting: (Species: MOUSE, Strain/Sex: SWISS/FEMALE, Route: INTRAPERITONEAL, Dose: 0, 100 NMOL (TOTAL DOSE) ADMINISTERED 1/7, 2/7 AND 4/7 ON DAY 1, 8 AND 15 RESPECTIVELY (STUDY DURATION: 32 WK)) “inactive; negative”; (Species: MOUSE, Strain/Sex: SWISS/MALE, Route: INTRAPERITONEAL, Dose: 0, 100 NMOL (TOTAL DOSE) ADMINISTERED 1/7, 2/7 AND 4/7 ON DAY 1, 8 AND 15 RESPECTIVELY (STUDY DURATION: 32 WK), Tumor Site: Type of Lesion: LIVER: TUMOR) “active; positive”.
Consider `C=C(C)C#N`, for which the carcinogen call is “inactive; negative” (Species: MOUSE, Strain/Sex: B6C3F1/FEMALE, Route: GAVAGE, Dose: 0, 1.5, 3, 6 MG/KG 5 D/WK FOR 104-105 WK (STUDY DURATION: 104-105 WK), Dose: 0, 1.5, 3, 6 MG/KG 5 D/WK FOR 104-105 WK (STUDY DURATION: 104-105 WK)); “inactive; negative” (Species: MOUSE, Strain/Sex: B6C3F1/MALE, Route: GAVAGE, Dose: 0, 1.5, 3, 6 MG/KG 5 D/WK FOR 104-105 WK (STUDY DURATION: 104-105 WK), Dose: 0, 1.5, 3, 6 MG/KG 5 D/WK FOR 104-105 WK (STUDY DURATION: 104-105 WK)); “inactive; negative” (Species: RAT, Strain/Sex: F344/FEMALE, Route: GAVAGE, Dose: 0, 3, 10, 30 MG/KG 5 D/WK FOR 104-105 WK (STUDY DURATION: 104-105 WK), Dose: 0, 3, 10, 30 MG/KG 5 D/WK FOR 104-105 WK (STUDY DURATION: 104-105 WK)); “inactive; negative” (Species: RAT, Strain/Sex: F344/MALE, Route: GAVAGE, Dose: 0, 3, 10, 30 MG/KG 5 D/WK FOR 104-105 WK (STUDY DURATION: 104-105 WK), Dose: 0, 3, 10, 30 MG/KG 5 D/WK FOR 104-105 WK (STUDY DURATION: 104-105 WK)).
Regarding `CC1(C)S[C@@H]2[C@H](NC(=O)COc3ccccc3)C(=O)N2[C@H]1C(=O)O`, the carcinogen call reads like this: (Species: MOUSE, Strain/Sex: B6C3F1/FEMALE, Route: GAVAGE, Dose: 0, 500, 1000 MG/KG IN CORN OIL 5 D/WK FOR 103-104 WK (STUDY DURATION: 106 WK), Dose: 0, 500, 1000 MG/KG IN CORN OIL 5 D/WK FOR 103-104 WK (STUDY DURATION: 106 WK)) “inactive; negative”; (Species: MOUSE, Strain/Sex: B6C3F1/FEMALE, Route: GAVAGE, Dose: 0, 500, 1000 MG/KG IN CORN OIL 5D/WK FOR 104 WK, Dose: 0, 500, 1000 MG/KG IN CORN OIL 5D/WK FOR 104 WK) “inactive; negative”; (Species: MOUSE, Strain/Sex: B6C3F1/MALE, Route: GAVAGE, Dose: 0, 500, 1000 MG/KG IN CORN OIL 5 D/WK FOR 103-104 WK (STUDY DURATION: 106 WK), Dose: 0, 500, 1000 MG/KG IN CORN OIL 5 D/WK FOR 103-104 WK (STUDY DURATION: 106 WK)) “inactive; negative”; (Species: MOUSE, Strain/Sex: B6C3F1/MALE, Route: GAVAGE, Dose: 0, 500, 1000 MG/KG IN CORN OIL 5D/WK FOR 104 WK, Dose: 0, 500, 1000 MG/KG IN CORN OIL 5D/WK FOR 104 WK) “inactive; negative”; (Species: RAT, Strain/Sex: F344/FEMALE, Route: GAVAGE, Dose: 0, 500, 1000 MG/KG IN CORN OIL 5 D/WK FOR 103-104 WK (STUDY DURATION: 106 WK), Dose: 0, 500, 1000 MG/KG IN CORN OIL 5 D/WK FOR 103-104 WK (STUDY DURATION: 106 WK)) “inactive; negative”; (Species: RAT, Strain/Sex: F344/FEMALE, Route: GAVAGE, Dose: 0, 500, 1000 MG/KG IN CORN OIL 5D/WK FOR 103 WK (STUDY DURATION: 104 WK), Dose: 0, 500, 1000 MG/KG IN CORN OIL 5D/WK FOR 103 WK (STUDY DURATION: 104 WK)) “inactive; negative”. Moreover, the carcinogen call runs as follows: (Species: RAT, Strain/Sex: F344/MALE, Route: GAVAGE, Dose: 0, 500, 1000 MG/KG IN CORN OIL 5 D/WK FOR 103-104 WK (STUDY DURATION: 106 WK), Dose: 0, 500, 1000 MG/KG IN CORN OIL 5 D/WK FOR 103-104 WK (STUDY DURATION: 106 WK)) “inactive; negative”; (Species: RAT, Strain/Sex: F344/MALE, Route: GAVAGE, Dose: 0, 500, 1000 MG/KG IN CORN OIL 5D/WK FOR 103 WK (STUDY DURATION: 104 WK), Dose: 0, 500, 1000 MG/KG IN CORN OIL 5D/WK FOR 103 WK (STUDY DURATION: 104 WK)) “inactive; negative”.
